Measured values: patent US20230241071A1, “COMBINATION TREATMENT OF LIVER DISORDERS” (Terns Pharmaceuticals, Inc., priority 2021, published 2023)
Read-outs that look alike come from different tables or passages of the source. Marks after values point to notes of the source that are not given here.

Columns and labels:
THR-β = target: T1, THR-β (Homo sapiens, UniProt P10828); experiment: Agonistic activity toward the thyroxine receptor beta; assay type: biochemical
T1 sequence (P10828 1-461): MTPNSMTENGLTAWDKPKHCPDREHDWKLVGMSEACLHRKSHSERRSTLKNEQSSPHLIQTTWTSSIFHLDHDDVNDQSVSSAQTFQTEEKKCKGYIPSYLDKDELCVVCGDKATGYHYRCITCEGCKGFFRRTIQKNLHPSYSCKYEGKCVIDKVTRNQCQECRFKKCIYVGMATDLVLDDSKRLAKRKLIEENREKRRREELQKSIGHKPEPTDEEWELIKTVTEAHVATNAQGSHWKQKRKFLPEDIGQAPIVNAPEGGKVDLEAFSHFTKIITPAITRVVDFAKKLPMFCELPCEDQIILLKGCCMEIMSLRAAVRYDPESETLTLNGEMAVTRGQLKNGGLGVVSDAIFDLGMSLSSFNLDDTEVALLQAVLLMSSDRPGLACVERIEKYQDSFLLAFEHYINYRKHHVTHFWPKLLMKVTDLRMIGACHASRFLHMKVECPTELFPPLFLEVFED

[1] = pH and solubilizer effect on solubility; assay type: physicochemical; details: potassium salt; for solubility at 24 h: 25 °C, thermodynamic from solid
Protocol: Solubility of compound 2 (potassium salt) was evaluated at various pH levels.

[2] = Single-ascending dose trial of Compound 2 in healthy participants: safety and PK; assay type: in vivo, human; details: for half-life / AUC(0-inf) / Cmax / Tmax: human, plasma, oral; for AUC(0-inf) / Cmax: mean; for fe, fraction of dose excreted in urine as unmodified compound 2: mean (% CV)
Protocol: A single-ascending dose clinical trial of Compound 2 (potassium salt) was performed.
Compound 2 plasma and urine concentrations were determined using validated liquid chromatography-tandem mass spectrometry assay
Urine samples for Compound 2 concentration and PK sampling were collected pre-dose and at the following timepoints: 0-6 hours, 6-12 hours, 12-24 hours, and 24-48 hours. PK parameters were estimated via noncompartmental methods using Phoenix® WinNonlin® (Certara, LP, Princeton, N.J.). Concentrations of serum pharmacodynamic (PD) biomarkers apolipoprotein B (Apo B) and sex hormone binding globulin (SHBG) were measured using an immunoassay and serum lipids were determined using spectrophotometry.

OATP1B1 = target: T2, OATP1B1 (Homo sapiens, UniProt Q9Y6L6); experiment: In vitro transporter inhibition, OATP1B1; assay type: in vitro ADME
T2 sequence (Q9Y6L6 1-691): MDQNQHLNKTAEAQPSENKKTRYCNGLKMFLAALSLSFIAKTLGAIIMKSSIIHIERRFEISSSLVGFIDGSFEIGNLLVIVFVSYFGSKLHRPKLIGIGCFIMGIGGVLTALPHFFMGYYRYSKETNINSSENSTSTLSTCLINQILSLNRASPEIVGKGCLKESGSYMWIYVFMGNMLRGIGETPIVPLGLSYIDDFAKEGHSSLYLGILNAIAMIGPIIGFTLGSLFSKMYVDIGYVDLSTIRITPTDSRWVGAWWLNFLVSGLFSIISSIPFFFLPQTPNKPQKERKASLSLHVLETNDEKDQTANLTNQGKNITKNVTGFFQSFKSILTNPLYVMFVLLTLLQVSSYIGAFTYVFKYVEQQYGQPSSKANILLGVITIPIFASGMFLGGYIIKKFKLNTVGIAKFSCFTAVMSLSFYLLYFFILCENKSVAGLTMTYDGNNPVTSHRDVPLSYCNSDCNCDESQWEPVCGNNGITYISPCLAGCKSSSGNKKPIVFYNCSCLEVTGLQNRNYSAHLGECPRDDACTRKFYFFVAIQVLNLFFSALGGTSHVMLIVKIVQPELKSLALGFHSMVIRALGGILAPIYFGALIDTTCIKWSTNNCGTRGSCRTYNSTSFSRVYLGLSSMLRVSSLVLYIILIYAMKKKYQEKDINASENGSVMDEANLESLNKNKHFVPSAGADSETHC

[3] = single dose 3 mg, fasted (n = 6)
[4] = single dose 10 mg, fasted (n = 6)
[5] = single dose 30 mg, fasted (n = 6)
[6] = single dose 60 mg, fasted (n = 6)

Compound: N#Cc1nn(-c2cc(Cl)c(Oc3n[nH]c(=O)c4ccccc34)c(Cl)c2)c(=O)[nH]c1=O [Compound 2, 2-(3,5-dichloro-4-((4-oxo-3,4-dihydrophthalazin-1-yl)oxy)phenyl)-3,5-dioxo-2,3,4,5-tetrahydro-1,2,4-triazine-6-carbonitrile]
- EC50 (THR-β): 1.75 µM
- solubility at 24 h ([1]; 0.1N HCl with 2 wt % SLS, aqueous with cosolvent or surfactant or cyclodextrin, 0.1N HCl, with 2 wt % SLS): 5.7 µg/mL
- solubility at 24 h ([1]; 0.1N HCl, simulated gastric fluid, without 2 wt % SLS): < 0.03 µg/mL
- solubility at 24 h ([1]; pH 2.0 buffer with 2 wt % SLS, pH 2, aqueous with cosolvent or surfactant or cyclodextrin, pH 2.0 buffer, with 2 wt % SLS): 5.5 µg/mL
- solubility at 24 h ([1]; pH 2.0 buffer, pH 2, aqueous buffer, without 2 wt % SLS): < 0.07 µg/mL
- solubility at 24 h ([1]; pH 4.0 buffer with 2 wt % SLS, pH 4, aqueous with cosolvent or surfactant or cyclodextrin, pH 4.0 buffer, with 2 wt % SLS): 10 µg/mL
- solubility at 24 h ([1]; pH 4.0 buffer, pH 4, aqueous buffer, without 2 wt % SLS): < 0.07 µg/mL
- solubility at 24 h ([1]; pH 6.0 buffer with 2 wt % SLS, pH 6, aqueous with cosolvent or surfactant or cyclodextrin, pH 6.0 buffer, with 2 wt % SLS): 42.3 µg/mL
- solubility at 24 h ([1]; pH 6.0 buffer, pH 6, aqueous buffer, without 2 wt % SLS): 2.2 µg/mL
- solubility at 24 h ([1]; pH 8.0 buffer with 2 wt % SLS, pH 8, aqueous with cosolvent or surfactant or cyclodextrin, pH 8.0 buffer, with 2 wt % SLS): 302 µg/mL
- solubility at 24 h ([1]; pH 8.0 buffer, pH 8, aqueous buffer, without 2 wt % SLS): 10.8 µg/mL
- solubility at 24 h ([1]; pH 10.0 buffer with 2 wt % SLS, pH 10, aqueous with cosolvent or surfactant or cyclodextrin, pH 10.0 buffer, with 2 wt % SLS): 308 µg/mL
- solubility at 24 h ([1]; pH 10.0 buffer, pH 10, aqueous buffer, without 2 wt % SLS): 10.2 µg/mL
- Solubility ([1]; pH 10.0 buffer, 24 h, with 2 wt % SLS, 25° C.): 308.2 µg/mL
- heart rates ([2]; 24 hours after single dose): remained stable and within the normal range
- renal excretion ([2]; all single doses): Minimal renal excretion
- half-life ([2]; 3 mg, single dose 3 mg, fasted (n = 6), median (min-max), read-out: t1/2 (converted)): 17.3 h
- half-life ([2]; 10 mg, single dose 10 mg, fasted (n = 6), median (min-max), read-out: t1/2 (converted)): 14.4 h
- half-life ([2]; 30 mg, single dose 30 mg, fasted (n = 6), median (min-max), read-out: t1/2 (converted)): 15.7 h
- half-life ([2]; 60 mg, single dose 60 mg, fasted (n = 6), median (min-max), read-out: t1/2 (converted)): 13.8 h
- half-life ([2]; single dose 3-60 mg, read-out: half-life (median) across single dose levels): 13.8 to 17.3 h
- AUC(0-inf) [2, 3]: 4060 ng·h/mL
- Cmax [2, 3]: 217 ng/mL
- Tmax ([2]; single dose 3 mg, fasted (n = 6), median (min-max)): 4 h
- AUC(0-inf) [2, 4]: 8110 ng·h/mL
- Cmax [2, 4]: 614 ng/mL
- Tmax ([2]; single dose 10 mg, fasted (n = 6), median (min-max)): 4 h
- AUC(0-inf) [2, 5]: 33000 ng·h/mL
- Cmax [2, 5]: 1800 ng/mL
- Tmax ([2]; single dose 30 mg, fasted (n = 6), median (min-max)): 4 h
- AUC(0-inf) [2, 6]: 50000 ng·h/mL
- Cmax [2, 6]: 3300 ng/mL
- Tmax ([2]; single dose 60 mg, fasted (n = 6), median (min-max)): 4 h
- overall safety and tolerability ([2]; single ascending doses up to 60 mg): safe and well-tolerated
- AEs by relationship to drug: Not related ([2]; single dose 3 mg (n = 6)): 2 (33.3%)
- AEs by relationship to drug: Possibly related ([2]; single dose 3 mg (n = 6)): 0
- AEs by relationship to drug: Related ([2]; single dose 3 mg (n = 6)): 0
- AEs by relationship to drug: Unlikely related ([2]; single dose 3 mg (n = 6)): 0
- Any AE, all CTCAE grades ([2]; single dose 3 mg (n = 6)): 2 (33.3%)
- CTCAE Grade 1 AEs ([2]; single dose 3 mg (n = 6)): 0
- CTCAE Grade 2 AEs ([2]; single dose 3 mg (n = 6)): 0
- CTCAE Grade 3 or higher AEs ([2]; single dose 3 mg (n = 6)): 0
- Serious AEs ([2]; single dose 3 mg (n = 6)): 0
- fe, fraction of dose excreted in urine as unmodified compound 2 [2, 3]: 2.95 (62) % dose, urine
- AEs by relationship to drug: Not related ([2]; single dose 10 mg (n = 6)): 0
- AEs by relationship to drug: Possibly related ([2]; single dose 10 mg (n = 6)): 0
- AEs by relationship to drug: Related ([2]; single dose 10 mg (n = 6)): 0
- AEs by relationship to drug: Unlikely related ([2]; single dose 10 mg (n = 6)): 0
- Any AE, all CTCAE grades ([2]; single dose 10 mg (n = 6)): 0
- CTCAE Grade 1 AEs ([2]; single dose 10 mg (n = 6)): 0
- CTCAE Grade 2 AEs ([2]; single dose 10 mg (n = 6)): 0
- CTCAE Grade 3 or higher AEs ([2]; single dose 10 mg (n = 6)): 0
- Serious AEs ([2]; single dose 10 mg (n = 6)): 0
- fe, fraction of dose excreted in urine as unmodified compound 2 [2, 4]: 2.05 (74) % dose, urine
- AEs by relationship to drug: Not related ([2]; single dose 30 mg (n = 6)): 1 (16.7%)
- AEs by relationship to drug: Possibly related ([2]; single dose 30 mg (n = 6)): 1 (16.7%)*
- AEs by relationship to drug: Related ([2]; single dose 30 mg (n = 6)): 0
- AEs by relationship to drug: Unlikely related ([2]; single dose 30 mg (n = 6)): 0
- Any AE, all CTCAE grades ([2]; single dose 30 mg (n = 6)): 2 (33.3%)
- CTCAE Grade 1 AEs ([2]; single dose 30 mg (n = 6)): 1 (16.7%)
- CTCAE Grade 2 AEs ([2]; single dose 30 mg (n = 6)): 1 (16.7%)
- CTCAE Grade 3 or higher AEs ([2]; single dose 30 mg (n = 6)): 0
- Serious AEs ([2]; single dose 30 mg (n = 6)): 0
- fe, fraction of dose excreted in urine as unmodified compound 2 [2, 5]: 1.78 (35) % dose, urine
- AEs by relationship to drug: Not related ([2]; single dose 60 mg (n = 6)): 0
- AEs by relationship to drug: Possibly related ([2]; single dose 60 mg (n = 6)): 0
- AEs by relationship to drug: Related ([2]; single dose 60 mg (n = 6)): 0
- AEs by relationship to drug: Unlikely related ([2]; single dose 60 mg (n = 6)): 0
- Any AE, all CTCAE grades ([2]; single dose 60 mg (n = 6)): 0
- CTCAE Grade 1 AEs ([2]; single dose 60 mg (n = 6)): 0
- CTCAE Grade 2 AEs ([2]; single dose 60 mg (n = 6)): 0
- CTCAE Grade 3 or higher AEs ([2]; single dose 60 mg (n = 6)): 0
- Serious AEs ([2]; single dose 60 mg (n = 6)): 0
- fe, fraction of dose excreted in urine as unmodified compound 2 [2, 6]: 1.53 (53) % dose, urine
- TSH, free T3, and free T4 levels ([2]; single dose 3-60 mg): remained within the normal range
- cardiac related AEs ([2]; single dose 3-60 mg): No cardiac related AEs
- exposures (AUC, Cmax), dose proportionality ([2]; single dose 3-60 mg): approximately dose-proportional
- half-life (median) across single dose levels ([2]; single dose 3-60 mg): > 13 h
- severity of adverse events ([2]; single dose 3-60 mg): mild or moderate
- subjects with increases in ALT more than 2-times greater than ULN ([2]; single dose 3-60 mg): No subjects
- IC50 (OATP1B1): 2.01 µM
